Source: PubChem BioAssay (NCI)
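Protocol summary: plate cells (96-well), add compound at 5 concentrations, incubate 48 h, interpolate endpoints linearly. GI50 marks 50% less growth. The concentration for full growth arrest is given as TGI.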

How the values were obtained:
Assay in all cases: NCI tumour cell line growth inhibition, 48 h
[1] = test system: SN12C renal
[2] = test system: MALME-3M melanoma
[3] = test system: IGROV1 ovarian
[4] = test system: RXF 393 renal
[5] = test system: CAKI-1 renal
[6] = test system: U251 CNS
[7] = test system: HCT-15 colon
[8] = test system: HCC-2998 colon
[9] = test system: HS 578T breast
[10] = test system: MCF7 breast

Structure (SMILES)	GI50 [1]	TGI [1]	GI50 [2]	TGI [2]	GI50 [3]	TGI [3]	GI50 [4]	TGI [4]	GI50 [5]	TGI [5]	GI50 [6]	TGI [6]	GI50 [7]	TGI [7]	GI50 [8]	TGI [8]	GI50 [9]	TGI [9]	GI50 [10]	TGI [10]
CCC[CH2][Sn]([CH2]CCC)([O]C(=O)c1cc(F)cc(F)c1)[O][Sn]([CH2]CCC)([CH2]CCC)[O]C(=O)c1cc(F)cc(F)c1	1.41 µM	2.76 µM	0.889 µM	2.18 µM	1.64 µM	3.31 µM	0.423 µM	1.56 µM	0.663 µM	1.95 µM	1.08 µM	2.28 µM	1.38 µM	2.79 µM	1.71 µM	3.32 µM	–	–	–	–
OC1CCC[C@@H]1Sc1ccccc1 (stereo not given in full)	–	> 100 µM	–	–	–	–	–	> 100 µM	–	> 100 µM	–	> 100 µM	–	> 100 µM	–	> 100 µM	–	–	–	–
CCOC(=O)c1c2cccccc2n2c(=O)cc(C)nc12	–	> 100 µM	–	–	–	> 100 µM	–	> 100 µM	–	> 100 µM	–	> 100 µM	–	> 100 µM	–	> 100 µM	–	–	–	–
O=C(NNC(=S)Nc1ccccc1)c1ccccn1	2.99 µM	> 100 µM	–	–	3 µM	> 100 µM	–	–	1.37 µM	> 100 µM	1.49 µM	> 100 µM	1.13 µM	> 100 µM	–	–	23.7 µM	> 100 µM	3.14 µM	> 100 µM
O=C(O)CCSC(=S)Nc1cccc(F)c1	–	> 100 µM	–	> 100 µM	–	80.9 µM	–	99.2 µM	–	> 100 µM	–	> 100 µM	–	> 100 µM	–	> 100 µM	–	–	–	–
O=C(O)CCSC(=O)Nc1ccccc1Cl	–	> 100 µM	–	> 100 µM	–	> 100 µM	–	> 100 µM	–	> 100 µM	–	> 100 µM	–	> 100 µM	–	> 100 µM	–	–	–	–
COC(=O)C(=O)C(C(=O)C=C(C)C)C(=O)C(=O)Nc1nc2ccc([N+](=O)[O-])cc2s1 (stereo not given)	–	> 100 µM	–	> 100 µM	–	66.4 µM	–	45.2 µM	–	94.7 µM	–	> 100 µM	–	> 100 µM	–	> 100 µM	–	–	–	–
Cc1ccc(NC(=O)CC/C(CC(=O)C(C)(C)C)=N\Nc2ccc([N+](=O)[O-])cc2[N+](=O)[O-])cc1C	–	–	–	–	–	> 100 µM	–	> 100 µM	–	–	–	> 100 µM	–	> 100 µM	–	–	–	–	–	–
COc1cc(/C=C\c2ccc(OC(C)=O)cc2)cc(OC)c1OC	–	> 100 µM	–	> 100 µM	–	> 100 µM	–	–	–	> 100 µM	–	> 100 µM	–	–	–	> 100 µM	–	–	–	–
COc1cc(CC(C(=O)O)C(=O)O)c(OC)cc1CC(C(=O)O)C(=O)O	–	> 100 µM	–	> 100 µM	–	> 100 µM	–	> 100 µM	–	> 100 µM	–	> 100 µM	–	> 100 µM	–	–	–	–	–	–
CCCN1C(=O)/C(=C/c2ccc(O)cc2)SC1=Nc1ccc(OC)cc1	16.8 µM	34.5 µM	–	–	30 µM	> 100 µM	11.7 µM	28.3 µM	12.9 µM	27.8 µM	12.5 µM	26 µM	12.6 µM	25.7 µM	–	–	4.48 µM	23.3 µM	23.2 µM	94.2 µM
CC(=O)O[C@H]1C(=O)[C@@]2(C)[C@H]([C@H](OC(=O)c3ccccc3)[C@@]3(O)C[C@H](O)C(C)=C1C3(C)C)[C@]1(OC(C)=O)CO[C@@H]1C[C@@H]2O	–	> 100 µM	–	> 100 µM	–	> 100 µM	–	> 100 µM	–	> 100 µM	–	> 100 µM	–	> 100 µM	–	–	–	96.3 µM	–	> 100 µM
CC1=C2[C@H](c3ccccc3)C3C=CC2(c2ccccc23)N(C(=O)C(c2ccccc2)c2ccccc2)C1=O (stereo not given in full)	–	> 100 µM	–	> 100 µM	–	> 100 µM	–	> 100 µM	–	> 100 µM	–	> 100 µM	–	> 100 µM	–	> 100 µM	–	–	–	–
COC(=O)C(C(=O)C(=O)Nc1ccc(OC)cc1[N+](=O)[O-])c1nc2cc(C)c(C)cc2[nH]c1=O (stereo not given)	–	> 100 µM	–	> 100 µM	–	> 100 µM	–	> 100 µM	–	> 100 µM	–	> 100 µM	–	> 100 µM	–	> 100 µM	–	–	–	–
COCOCC[C@@H]1CC=CC(NC(=O)OCc2ccccc2)C1/C=C/C(=O)CCC1OCCO1 (stereo not given in full)	–	> 68.5 µM	–	> 100 µM	–	> 100 µM	–	> 75.9 µM	–	> 100 µM	–	70.6 µM	–	32.2 µM	–	> 100 µM	–	–	–	–
C/C(CCn1[nH]c(=O)ccc1=O)=N\Nc1ccc([N+](=O)[O-])cc1[N+](=O)[O-]	–	> 100 µM	–	> 100 µM	–	> 100 µM	–	> 100 µM	–	> 100 µM	–	–	–	> 100 µM	–	> 100 µM	–	–	–	–
Cc1cn2c(/C=C3/C(=O)Nc4ccc(F)cc43)c(C)nc2s1	8.56 µM	27.4 µM	7.26 µM	> 50 µM	2.14 µM	25 µM	–	–	9.21 µM	> 50 µM	5.96 µM	> 50 µM	2.73 µM	> 50 µM	–	–	7.98 µM	28.2 µM	1.92 µM	> 50 µM
COc1ccc(CNc2cnc3cc(N)cc(N)c3n2)cc1	18.4 µM	32.9 µM	–	–	11.2 µM	29 µM	22.3 µM	49.8 µM	28.9 µM	68.6 µM	17.2 µM	32.5 µM	24.6 µM	68.6 µM	14.3 µM	28 µM	24.2 µM	69.3 µM	37.5 µM	> 100 µM
CCCCCCCCCOC(=S)NCCCCC	–	74 µM	–	63.2 µM	–	> 100 µM	–	53.6 µM	–	73.7 µM	–	48.6 µM	–	53.9 µM	–	> 100 µM	–	–	–	–
CCOC(=O)NC(=O)c1cn(CCN2CCNCC2)c(=O)[nH]c1=O	–	> 100 µM	–	–	–	> 100 µM	–	> 100 µM	–	> 100 µM	–	> 100 µM	–	> 100 µM	–	–	–	–	–	–
COc1ccc(/C=c2/sc3n(c2=O)NC(c2ccc(Cl)cc2)NN=3)cc1 (stereo not given)	–	> 100 µM	–	> 100 µM	–	> 100 µM	–	> 100 µM	–	> 100 µM	–	> 100 µM	–	–	–	> 100 µM	–	–	–	–
